For 11 compounds, logP results are on record in the SangsterLogP compilation.

Molecules are shown by their SMILES.

This data set can be described thus: method code SF, from Rulke, H.; Friedel, A.; Martin, E.; Kottke, K.; Grafe, I.; Kuhmstedt, H. (1991). Investigations on the acidity ond partition properties of 1-phenyl-5-mercaptotetrazoles. Pharmazie, 46(6)456-457.
On to `S=c1[nH]nnn1-c1cccc(Br)c1`, for which the logP worked out at 2.39. The value for `S=c1[nH]nnn1-c1cccc(Cl)c1Cl` was 2.41; that for `S=c1[nH]nnn1-c1ccccc1I` was 3.14; that for `O=[N+]([O-])c1ccc(-n2nn[nH]c2=S)cc1` was 1.99. The value for `S=c1[nH]nnn1-c1ccc(Br)cc1` was 2.54; that for `S=c1[nH]nnn1-c1ccc2ccccc2c1` was 2.63; that for `S=c1[nH]nnn1-c1ccc(Cl)cc1Cl` was 2.89.

For `S=c1[nH]nnn1-c1cccc(Cl)c1`, the logP amounted to 2.34.

`Cc1cccc(-n2nn[nH]c2=S)c1`: the log partition coefficient (logP) was found to be 2.29. The logP values of the last two compounds are within 0.2 log units of each other. As for `S=c1[nH]nnn1-c1ccc(Cl)c(Cl)c1`, the figure is 2.68; as for `S=c1[nH]nnn1-c1ccc(Cl)cc1`, 2.09.
